Data on 37 compounds can be found in patent publication US12319655B2, “RAF kinase inhibitors and methods of use thereof” (Deciphera Pharmaceuticals, LLC, priority 2021, dated 2025).

The target of test [1] is C-Raf kinase (SEQ. ID NO: 3) (Homo sapiens (Human), UniProt P04049, Y340D/Y341D). Briefly: Biochemical Assay for C-Raf (1). As to conditions: Table J, assay version (1); read-out: CRAF (1) IC50. The method, boiled down:
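Coupled pyruvate kinase/LDH assay tracking NADH oxidation at 340 nm, with 0.43 nM C-Raf, 30.1 nM MEK and 1 mM ATP in pH 7.5 Tris buffer (15 mM MgCl2, 1% DMSO final). Read continuously for 6 h at 30 °C, rate taken from the 4–5 h window. IC50 from four-parameter fit of percent inhibition.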

For test [2], the target named is B-Raf kinase (SEQ. ID NO: 2) (Homo sapiens (Human), UniProt P15056). Briefly: Biochemical Assay for B-Raf (1). As to conditions: Table J, assay version (1); read-out: BRAF (1) IC50. The method, boiled down: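 Continuous PK/LDH-coupled NADH oxidation assay, A340 read for 6 h at 30° C., with 0.13 nM B-Raf, 30.1 nM MEK substrate and 1 mM ATP in Tris pH 7.5, MgCl2, DTT, detergents, 1% DMSO. Rate taken from 4–5 h window; percent inhibition vs no-compound and known-inhibitor controls; four-parameter fit gives IC50.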

Test [3] has as its system A375 cells. Briefly: A375 Cell Proliferation Assay (1). In kind it is cell-based. As to conditions: Homo sapiens, A-375. The method, boiled down:
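Resazurin fluorescence (excitation 540 nm, emission 600 nm, after a further 5-6 h) gave IC50s from triplicate compound dilution series.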

In test [4] the test system is WM3928 cells. Briefly: WM3928 Cell Proliferation Assay (1). Type of test: cell-based. The method, boiled down:
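IC50 was derived from resazurin fluorescence (ex 540, em 600 nm) after a 6–7 h dye incubation. Before that, cells had 67–72 h of compound exposure at 37 °C, 5% CO2.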

Chain of B-Raf kinase (SEQ. ID NO: 2) (P15056 416-766): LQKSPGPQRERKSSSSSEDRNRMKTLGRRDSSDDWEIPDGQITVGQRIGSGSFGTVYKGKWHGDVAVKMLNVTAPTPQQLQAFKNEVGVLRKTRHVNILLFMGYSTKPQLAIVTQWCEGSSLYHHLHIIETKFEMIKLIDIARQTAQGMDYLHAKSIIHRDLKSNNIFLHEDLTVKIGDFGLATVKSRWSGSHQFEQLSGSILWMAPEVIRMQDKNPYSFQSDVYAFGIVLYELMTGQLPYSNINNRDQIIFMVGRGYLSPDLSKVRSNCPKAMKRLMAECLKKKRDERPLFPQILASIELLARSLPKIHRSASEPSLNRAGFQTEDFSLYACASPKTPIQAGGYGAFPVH
Chain of C-Raf kinase (SEQ. ID NO: 3) (P04049 307-648 Y340D/Y341D): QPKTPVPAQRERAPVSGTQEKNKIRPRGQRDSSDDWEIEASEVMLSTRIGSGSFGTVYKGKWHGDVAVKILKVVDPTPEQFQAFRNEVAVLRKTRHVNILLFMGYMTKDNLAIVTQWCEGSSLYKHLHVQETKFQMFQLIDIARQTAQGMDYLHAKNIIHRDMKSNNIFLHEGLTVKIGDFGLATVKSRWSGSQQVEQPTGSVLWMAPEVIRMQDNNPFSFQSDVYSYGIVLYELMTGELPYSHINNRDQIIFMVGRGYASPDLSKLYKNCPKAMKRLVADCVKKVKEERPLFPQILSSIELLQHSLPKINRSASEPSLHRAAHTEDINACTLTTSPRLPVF

Turning to `CNC(=O)c1cc(-c2cnnc(-c3cc(NC(=O)c4ccnc(C5CC5)c4)cnc3C)c2)ccn1` [Example 317], the concentration for half-maximal inhibition (IC50) in test [1] is 100 to 500 nM; in test [2], 500 to 1000 nM; in test [3] it was 1000 to 10000 nM.
Take `COC(=O)Nc1cc(-c2cc(-c3cc(NC(=O)c4ccnc(C(F)F)c4)cnc3C)ccn2)ccn1` [Example 313]: the concentration for half-maximal inhibition (IC50) in test [4] is 1000 to 10000 nM; in test [1] it was at most 100 nM; in test [2], at most 100 nM; in test [3] it was 1000 to 10000 nM.
Consider `COC(=O)Nc1cc(-c2cc(-c3cc(NC(=O)c4ccnc(C(C)(C)F)c4)cnc3C)ccn2)ccn1` [Example 323], for which the 50% inhibitory concentration (IC50) in test [4] was 100 to 500 nM; in test [1], at most 100 nM; in test [2], at most 100 nM; in test [3], 100 to 500 nM.
For the compound `Cc1ncc(NC(=O)c2cnn(C(C)(C)C)c2)cc1-c1ccnc(-c2ccnc(NC(=O)C3CC3)c2)n1` [Example 283], the IC50 in test [4] is 100 to 500 nM; in test [1] it was at most 100 nM; in test [2], at most 100 nM; in test [3], 100 to 500 nM.
For `COC(=O)Nc1cc(-c2cc(-c3cc(NC(=O)c4ccnc(C(C)(C)C#N)c4)c(F)cc3C)ccn2)ccn1` [Example 308], the IC50 in test [4], in test [1], in test [2] and in test [3] was at most 100 nM each time.
As to `COC(=O)Nc1cc(-c2nccc(-c3cc(NC(=O)c4ccnc(C(C)(C)F)c4)c(F)cc3C)n2)ccn1` [Example 304], the IC50 in test [4] is at most 100 nM; in test [1], at most 100 nM; in test [2], at most 100 nM; in test [3], 100 to 500 nM.
Consider `CNC(=O)c1cc(-c2cnnc(-c3cc(NC(=O)c4ccnc(C5CC5)c4)ccc3C)c2)ccn1` [Example 326], for which the half-maximal inhibitory concentration (IC50) in test [4] is 1000 to 10000 nM; in test [1], at most 100 nM; in test [2] it was 100 to 500 nM; in test [3], 1000 to 10000 nM.
`CNC(=O)c1cc(-c2cnnc(-c3cc(NC(=O)c4ccnc(C(C)(C)C#N)c4)cnc3C)c2)ccn1` [Example 316]: the IC50 was in the range of 100 to 500 nM in test [1], 500 to 1000 nM in test [2] and 1000 to 10000 nM in test [3].
Consider `Cc1ccc(NC(=O)C2CN(C)CCO2)cc1-c1cccc(-c2cc(NC(=O)C3CC3)ncn2)c1` (centres unmarked) [Example 346], for which the values for the 50% inhibitory concentration (IC50) in test [1], in test [2] and in test [3] were at most 100 nM, at most 100 nM and 1000 to 10000 nM, respectively.
With `CNC(=O)c1cc(-c2cnnc(-c3cc(NC(=O)c4cn(C(C)(C)C)nn4)ccc3C)c2)ccn1` [Example 366], the figures for the half-maximal inhibitory concentration (IC50) in test [1], in test [2] and in test [3] were 100 to 500 nM, 100 to 500 nM and 1000 to 10000 nM, respectively.
With `CNC(=O)c1cc(-c2cc(-c3cc(C(=O)Nc4ccnc(C(F)(F)F)c4)ccc3C)ccn2)ccn1` [Example 31], the concentration for half-maximal inhibition (IC50) in test [1] is at most 100 nM; in test [2], 100 to 500 nM; in test [3] it was 1000 to 10000 nM.
On to `CO[C@H]1CC[C@H](C(=O)Nc2ccc(C)c(-c3ccnc(-c4ccnc(NC(=O)C5CC5)c4)n3)c2)CC1` [Example 341], for which the IC50 in test [4] is 1000 to 10000 nM; in test [1], at most 100 nM; in test [2], 100 to 500 nM; in test [3], 1000 to 10000 nM.
As to `CC(=O)Nc1cc(-c2cccc(-c3cc(NC(=O)c4ccnc(C(F)(F)F)c4)ccc3C)c2)ccn1` [Example 28], the IC50 in test [1], in test [2] and in test [3] was at most 100 nM in each case.
With `COC(=O)Nc1cc(-c2cc(-c3cc(NC(=O)c4ccnc(C(C)(C)F)c4)c(F)cc3C)ccn2)ccn1` [Example 302], the 50% inhibitory concentration (IC50) in test [4], in test [1], in test [2] and in test [3] was at most 100 nM throughout.
As to `CNC(=O)c1cc(-c2cnnc(-c3cc(NC(=O)c4ccnc(C(C)(C)F)c4)cnc3C)c2)ccn1` [Example 309], the concentration for half-maximal inhibition (IC50) in test [1] lay in the range of 100 to 500 nM; in test [2] it was 1000 to 10000 nM; in test [3], 1000 to 10000 nM.
`CNC(=O)c1cc(-c2cnnc(-c3cc(NC(=O)c4ccc(Cl)c(OC)c4)cnc3C)c2)ccn1` [Example 322]: the IC50 in test [1], in test [2] and in test [3] was 1000 to 10000 nM in each case.
As to `COC(=O)Nc1cc(-c2cnnc(-c3cc(NC(=O)c4ccnc(C(C)(C)F)c4)cnc3C)c2)ccn1` [Example 361], the IC50 in test [1] was at most 100 nM; in test [2] it was 100 to 500 nM; in test [3], 1000 to 10000 nM.
Turning to `CC(=O)Nc1cc(-c2cc(-c3cc(C(=O)Nc4ccnc(C(F)(F)F)c4)ccc3C)ccn2)ccn1` [Example 26], the results for the half-inhibitory concentration (IC50) in test [1], in test [2] and in test [3] were at most 100 nM, at most 100 nM and 100 to 500 nM, respectively.
Regarding `Cc1ncc(NC(=O)c2ccnc(C(C)(C)F)c2)cc1-c1cc(-c2ccnc(NC(=O)C3CC3)c2)cnn1` [Example 310], the IC50 in test [1] was at most 100 nM; in test [2], at most 100 nM; in test [3], 100 to 500 nM.
For `COC(=O)Nc1cc(-c2cnnc(-c3cc(NC(=O)c4cccc(C(C)(C)C#N)c4)ccc3C)c2)ccn1` [Example 311], the IC50 in test [1], in test [2] and in test [3] was at most 100 nM throughout.
As for `CO[C@H]1CC[C@H](C(=O)Nc2cnc(C)c(-c3cccc(-c4cc(NC(=O)C5CC5)ncn4)c3)c2)CC1` [Example 347], the concentration for half-maximal inhibition (IC50) in test [1] fell in the range of 100 to 500 nM; in test [2], 500 to 1000 nM; in test [3], 1000 to 10000 nM.
On the same counts, the results for `COC(C)(C)c1cc(C(=O)Nc2ccc(C)c(-c3cc(-c4ccnc(NC(=O)C5CC5)c4)cnn3)c2)ccn1` [Example 319] are at most 100 nM, at most 100 nM and at most 100 nM.
On the same counts, the results for `Cc1ncc(NC(=O)c2cnnc(C3CC3)c2)cc1-c1nccc(-c2ccnc(NC(=O)C3CC3)c2)n1` [Example 294] are at most 100 nM, at most 100 nM and 1000 to 10000 nM.
For `Cc1ccc(NC(=O)c2ccnc(C(C)(C)C#N)c2)cc1-c1cc(-c2ccnc3[nH]ccc23)cnn1` [Example 369], in that order: at most 100 nM, at most 100 nM and 1000 to 10000 nM.
With `COCCNC(=O)c1cc(-c2cnnc(-c3cc(NC(=O)c4cccc(C5CC5)c4)ccc3C)c2)ccn1` [Example 365], the half-maximal inhibitory concentration (IC50) in test [1] was in the range of 100 to 500 nM; in test [2], 100 to 500 nM; in test [3] it was 1000 to 10000 nM.
With `Cc1ccc(NC(=O)c2cc(C(C)(C)C)no2)cc1-c1cc(-c2ccnc(NC(=O)C3CC3)c2)cnn1` [Example 367], the values for the IC50 in test [1], in test [2] and in test [3] were at most 100 nM, at most 100 nM and 100 to 500 nM, respectively.
For `COC(=O)Nc1cc(-c2cnnc(-c3cc(NC(=O)CC4CCCC4)cnc3C)c2)ccn1` [Example 368], the IC50 in test [1], in test [2] and in test [3] was 1000 to 10000 nM throughout.
For `COC(=O)Nc1cc(-c2cnnc(-c3cc(NC(=O)CN4CCCC4)cnc3C)c2)ccn1` [Example 359], the 50% inhibitory concentration (IC50) in test [1], in test [2] and in test [3] was 1000 to 10000 nM throughout.
Consider `CNC(=O)c1cc(-c2cnnc(-c3cc(NC(=O)CCC(C)(C)C#N)cnc3C)c2)ccn1` [Example 333], for which the 50% inhibitory concentration (IC50) in test [1], in test [2] and in test [3] was 1000 to 10000 nM each time.
For `CNC(=O)c1cc(-c2cnnc(-c3cc(NC(=O)c4ccnc(C(F)(F)F)c4)cnc3C)c2)ccn1` [Example 318], the figures for the concentration for half-maximal inhibition (IC50) in test [1], in test [2] and in test [3] were 100 to 500 nM, 500 to 1000 nM and 1000 to 10000 nM, respectively.
On to `COC(=O)Nc1cc(-c2cnnc(-c3cc(NC(=O)c4ccnc(C(C)(C)C#N)c4)cnc3C)c2)ccn1` [Example 306], for which the IC50 in test [1] was in the range of 100 to 500 nM; in test [2] it was 100 to 500 nM; in test [3], 1000 to 10000 nM.
Turning to `CC(=O)Nc1cc(-c2cc(-c3cc(NC(=O)c4ccnc(C(F)(F)F)c4)ccc3C)cn(C)c2=O)ccn1` [Example 21, N-(3-(2′-acetamido-1-methyl-2-oxo-1,2-dihydro-[3,4′-bipyridin]-5-yl)-4-methylphenyl)-2-(trifluoromethyl)isonicotinamide], the IC50 in test [1] is at most 100 nM; in test [2], at most 100 nM; in test [3], 1000 to 10000 nM.
For the compound `CNC(=O)c1cc(-c2cnnc(-c3cc(NC(=O)c4ccnc(C(F)F)c4)cnc3C)c2)ccn1` [Example 330], the IC50 in test [1] was in the range of 100 to 500 nM; in test [2] it was 500 to 1000 nM; in test [3], 1000 to 10000 nM.
For `CNC(=O)c1cc(-c2cc(-c3cc(NC(=O)CCC(C)(C)C#N)ccc3C)ccn2)ccn1` [Example 357], in that order: at most 100 nM, 100 to 500 nM and 1000 to 10000 nM.
On to `COC(=O)Nc1cc(-c2cnnc(-c3cc(NC(=O)c4ccnc(C(F)F)c4)cnc3C)c2)ccn1` [Example 363], for which the 50% inhibitory concentration (IC50) in test [1] was 100 to 500 nM; in test [2], 500 to 1000 nM; in test [3] it was 1000 to 10000 nM.
As for `Cc1ccc(NC(=O)c2ccnc(C(C)(C)C#N)c2)cc1-c1cc(-c2ccnc(C(=O)NC3CC3)c2)cnn1` [Example 372], the half-maximal inhibitory concentration (IC50) in test [1] was in the range of 500 to 1000 nM; in test [2], 1000 to 10000 nM; in test [3] it was 1000 to 10000 nM.
With `COC(=O)Nc1cc(-c2cnnc(-c3cc(NC(=O)c4ccnc(C5CC5)c4)cnc3C)c2)ccn1` [Example 362], the IC50 in test [1] is at most 100 nM; in test [2], 100 to 500 nM; in test [3] it was 1000 to 10000 nM.
